In test [1] the test system is HeLa. As to the kind of experiment: Inhibition of autophagy in human HeLa cells assessed as increase in lysosomal pH at 10 uM after 24 hrs by LysoTracker Red DND-99 staining based fluorescence microscopic method. The test is classed as functional, cell-based.
For test [2], the system named is HeLa. As to the kind of experiment: Modulation of autophagy in human HeLa cells assessed as increase in LC3-2 protein level at 10 uM after 24 hrs in presence of chloroquine by Western blot analysis. Type of test: functional, cell-based. Background: Immunoblotting shows a protein as a band on a membrane.
Test [3] relates to HeLa. As to the kind of experiment: Inhibition of autophagy in human HeLa cells assessed as increase in P62 protein level at 10 uM after 24 hrs in presence of Baf A1 by Western blot analysis. The test is classed as functional, cell-based.
Test [4] relates to HeLa. As to the kind of experiment: Antiproliferative activity against human HeLa cells assessed as cell viability at 20 uM after 24 hrs by MTT assay relative to control. Type of test: functional. The note with it: read-out: Activity. (Formazan colour is commonly taken as a measure of viable cells.)
The subject of test [5] is HeLa. The test can be described thus: Modulation of autophagy in human HeLa cells assessed as increase in LC3-2 protein level at 1 to 20 uM after 24 hrs by Western blot analysis. The following applies: dose 1-20 µM. The test is classed as functional, cell-based.
Test [6] deals with HeLa. The test can be described thus: Modulation of autophagy in human HeLa cells assessed as increase in LC3-2 protein level at 10 uM after 24 hrs in presence of Baf A1 by Western blot analysis. Type of test: functional, cell-based.
The test system of test [7] is HeLa. The test can be described thus: Antiproliferative activity against human HeLa cells assessed as cell viability at 1 uM after 24 hrs by MTT assay relative to control. The test is classed as functional. The following applies: read-out: Activity.
Test [8] concerns HeLa. The test can be described thus: Inhibition of autophagy in human HeLa cells assessed as increase in P62 protein level at 1 to 20 uM after 24 hrs by Western blot analysis. The following applies: dose 1-20 µM. The test is classed as functional, cell-based.
Test [9] deals with HeLa. The test can be described thus: Induction of autophagosome formation in human HeLa cells assessed as increase in LC3 puncta at 10 uM after 24 hrs by Alexa Fluor 488 staining based fluorescence microscopic analysis. Type of test: functional, cell-based.
For test [10], the system named is HeLa. The test can be described thus: Induction of autophagosome formation in human HeLa cells assessed as increase in LC3 puncta at 10 uM after 6 hrs in presence of rapamycin by Alexa Fluor 488 staining based fluorescence microscopic analysis. Type of test: functional, cell-based.
Test [11] has as its system HeLa. As to the kind of experiment: Antiproliferative activity against human HeLa cells assessed as cell viability at 10 uM after 24 hrs by MTT assay relative to control. Type of test: functional. The note with it: read-out: Activity.
The subject of another test is SK-MEL-28. As to the kind of experiment: Induction of autophagosome formation in SK-MEL-28 cells assessed as increase in LC3 puncta at 10 uM after 24 hrs by Alexa Fluor 488 staining based fluorescence microscopic analysis. Type of test: functional, cell-based. The note with it: Homo sapiens.
The subject of test [12] is HeLa. As to the kind of experiment: Induction of autophagosome formation in human HeLa cells assessed as increase in LC3 puncta at 10 uM after 24 hrs in presence of Baf A1 by Alexa Fluor 488 staining based fluorescence microscopic analysis. Type of test: functional, cell-based.
The test system of test [13] is HeLa. The test can be described thus: Inhibition of autophagy in human HeLa cells assessed as decrease in cathepsin B at 10 nM after 24 hrs by immunoblot analysis. Type of test: functional, cell-based.
For test [14], the system named is HeLa. The test can be described thus: Inhibition of autophagy in human HeLa cells assessed as increase in P62 protein level at 10 uM after 24 hrs in presence of chloroquine by Western blot analysis. The test is classed as functional, cell-based.
The next test relates to HT-1080. As to the kind of experiment: Induction of autophagosome formation in HT-1080 cells assessed as increase in LC3 puncta at 10 uM after 24 hrs by Alexa Fluor 488 staining based fluorescence microscopic analysis. The test is classed as functional, cell-based. The following applies: Homo sapiens.
The subject of test [15] is HeLa. The test can be described thus: Induction of autophagy in human HeLa cells assessed as decrease in P62 protein level at 1 uM after 24 hrs by Western blot analysis. Type of test: functional, cell-based.
The test system of test [16] is HeLa. As to the kind of experiment: Inhibition of autophagy in human HeLa cells assessed as increase in P62 protein level at 10 nM after 24 hrs by Western blot analysis. Type of test: functional, cell-based.
For test [17], the system named is HeLa. As to the kind of experiment: Induction of autophagosome formation in human HeLa cells assessed as increase in LC3 puncta at 10 nM after 24 hrs by Alexa Fluor 488 staining based fluorescence microscopic analysis. Type of test: functional, cell-based.
The subject of test [18] is HeLa. The test can be described thus: Inhibition of autophagy in human HeLa cells assessed as increase in lysosomal pH at 10 nM after 24 hrs by LysoTracker Red DND-99 staining based fluorescence microscopic method. The test is classed as functional, cell-based.

Activity calls are given as the source filed them. No cut-off for these calls is given here.

For `CCN(CC)CCCC(C)Nc1ccnc2cc(Cl)ccc12` (stereo unspecified), the inhibition entry in the test on HeLa [1] was “Active”.

As for `C1=C\C/C=C\CC[C@@]23CN(CC/C=C\C/1)C[C@H]1C/C4=C/C/C=C\CCCCN(C2)[C@@H]4C[C@H]13`, the inhibition result in the test on HeLa [2], with HeLa [3], in the test on HeLa [6], with HeLa [8], in the test on HeLa [1] and in the test with HeLa [13] was “Active” throughout. Also, the inhibition result with HeLa [14] was “Active”. Moreover, the viability at 20 µM in the test with HeLa [4] amounted to 1.4%. In addition, the result in the test on HeLa [5], in the test with HeLa [9], in the test on SK-MEL-28, in the test on HeLa [12] and with HT-1080 was Active. The viability at 1 µM in the test with HeLa [7] worked out at 95.2%. For the same compound, the outcome with HeLa [10] was inactive. Further, the viability at 10 µM in the test with HeLa [11] came out at 2.9%.

Turning to `CO[C@H]1C[C@@H]2CC[C@@H](C)[C@@](O)(O2)C(=O)C(=O)N2CCCC[C@H]2C(=O)O[C@H]([C@H](C)C[C@@H]2CC[C@@H](O)[C@H](OC)C2)CC(=O)[C@H](C)/C=C(\C)[C@@H](O)[C@@H](OC)C(=O)[C@H](C)C[C@H](C)/C=C/C=C/C=C/1C`, the outcome with HeLa [15] was Active.

Regarding `CO/C1=C\C(C)=C\[C@@H](C)[C@@H](O)[C@@H](C)C/C(C)=C/C=C/[C@H](OC)[C@@H]([C@@H](C)[C@@H](O)[C@H](C)[C@@]2(O)C[C@@H](O)[C@H](C)[C@@H](C(C)C)O2)OC1=O`, the inhibition result in the test on HeLa [16] is “Active”. Besides, the outcome in the test on HeLa [17] was Active. The inhibition entry in the test on HeLa [18] was “inactive”.

Values taken from ChEMBL document CHEMBL4715915, “Identification of madangamine A as a novel lysosomotropic agent to inhibit autophagy” (2021).
